The text below walks through data of PubChem BioAssay (NCI).

Structures are written as SMILES.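 The compound was tested at five concentrations on cells cultured in 96-well plates, with a 48-hour exposure period. At the GI50, growth is halved. Definition used: TGI = concentration required for complete inhibition of growth.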

Holding throughout (assay): inhibition of tumour cell growth, NCI panel, 48 h
Test [1] has as its system 786-0 renal.
The test system of test [2] is SK-MEL-5 melanoma.
The test system of test [3] is TK-10 renal.
The test system of test [4] is UACC-257 melanoma.
For test [5], the system named is HCC-2998 colon.
The test system of test [6] is MCF7 breast.
Test [7] deals with RPMI-8226 leukemia.
Test [8] deals with U251 CNS.
The test system of test [9] is SR leukemia.
Test [10] concerns OVCAR-5 ovarian.

For the compound `Oc1c(-c2cc(C(F)(F)F)[nH]n2)cc(Cl)c(OCc2ccc(Cl)cc2)c1-c1ccc(Cl)c(C(F)(F)F)c1`, the GI50 in test [1] is 0.647 µM; in [2], 0.265 µM; in [3] it was 0.56 µM; in test [4], 1.12 µM; in test [5], 0.739 µM; in test [6], 0.228 µM. The GI50 in [7] is 0.204 µM; in test [8] it was 0.5 µM; in test [9], 0.256 µM; in test [10], 2.01 µM. In addition, the TGI in test [1] came to 2.14 µM; in [2], 0.941 µM; in [3] it was 5.28 µM; in test [4] it was 3.59 µM; in [5], 4.53 µM; in [6], 5.39 µM. Besides, the TGI in [7] worked out at 1.19 µM; in test [8] it was 5.76 µM; in [9], 2.99 µM; in test [10], 7.91 µM.
On to `COc1cc(C(=O)c2cc(C)c3[nH]c4ccc(O)cc4c3c2C)cc(OC)c1OC`, for which the GI50 is below 0.0184 µM in test [1]; 0.0162 µM in [2]; 4.24 µM in test [3]; 6.42 µM in test [4]; 0.03 µM in test [5]; below 0.01 µM in test [6]. Moreover, the GI50 in [7] is 0.0228 µM; in [8], 0.0226 µM; in test [9] it was below 0.01 µM; in test [10], 0.0511 µM. Moreover, the TGI in [1] was above 22.2 µM; in test [2] it was 0.0637 µM; in [3], above 100 µM; in test [4] it was above 100 µM; in [5], above 37.9 µM; in [6] it was above 44.4 µM. Moreover, the TGI in [7], in [8], in test [9] and in test [10] was above 100 µM throughout.
Turning to `Clc1ccc(C2ON=C(c3ccccc3)N2C23CC4CC(CC(C4)C2)C3)cc1` (stereo unspecified), the TGI in [1], in test [2], in [3], in test [4], in test [5] and in [6] was above 10 µM each time. Besides, the TGI in [7], in [8], in test [9] and in test [10] was above 10 µM each time.
As for `CCc1c(C)nc2sc3c(N)ncnc3c2c1C`, the GI50 in test [1], in [2], in test [3], in test [4], in [5] and in test [6] was above 25 µM throughout. Further, the GI50 in [7], in test [8], in test [9] and in test [10] was above 25 µM in each case. For the same compound, the TGI in test [1], in test [2], in test [3], in test [4], in [5] and in test [6] was above 25 µM throughout. Also, the TGI in [7], in test [8], in test [9] and in test [10] was above 25 µM each time.
With `Cc1ccncc1C(N)=O`, the GI50 in test [1], in test [2], in test [3], in test [4], in test [5] and in [6] was above 100 µM in each case. In addition, the GI50 in test [7], in test [8], in [9] and in test [10] was above 100 µM in each case. The TGI in test [1], in [2], in test [3], in test [4], in test [5] and in [6] was above 100 µM in each case. In addition, the TGI in test [7], in test [8], in test [9] and in test [10] was above 100 µM in each case.
With `COc1ccc(Nc2ccnc(N3CCN(c4ccnc5cc(Cl)ccc45)CC3)n2)cc1`, the GI50 is 1.4 µM in [1]; 0.579 µM in test [2]; 2.18 µM in [3]; 1.25 µM in [4]; 2.73 µM in [5]; 1.01 µM in test [6]. The GI50 in test [7] was 1.04 µM; in test [8], 1.17 µM; in [9] it was 0.601 µM; in [10] it was 2.15 µM. The TGI in [1] was 6.87 µM; in [2], 1.87 µM; in test [3] it was 7.95 µM; in test [4], 2.84 µM; in [5], above 55.4 µM; in [6], 7.32 µM. For the same compound, the TGI is 3.88 µM in test [7], 11.5 µM in test [8], 6.88 µM in test [9] and above 100 µM in [10].
In the case of `N#CCCNc1nonc1-c1nc2ccccc2n1CC(=O)c1ccc(NC(=O)[C@@H](N)CCCCN)cc1`, the GI50 in test [1] was 0.0557 µM; in test [2], 0.03 µM; in test [3] it was 11.9 µM; in test [4] it was above 100 µM; in test [5], 0.0308 µM; in test [6], 0.0302 µM. Moreover, the GI50 in [7] was 0.0434 µM; in [8], 0.0445 µM; in [9] it was 0.025 µM; in test [10] it was 0.0644 µM. Besides, the TGI in test [1] is above 100 µM; in test [2], 0.197 µM; in test [3] it was above 100 µM; in test [4], above 100 µM; in [5] it was above 92.2 µM; in [6], above 100 µM. Further, the TGI in test [7], in [8], in test [9] and in [10] was above 100 µM each time.
As for `C=C1[C@@H](O)O[C@H]2[C@H]1C[C@H](OC(C)=O)[C@]13C(=O)O[C@H]4C[C@](C)(O)[C@H]([C@H]41)C31C=C(C)[C@]2(O)O1`, the GI50 in test [1] was 22.4 µM; in [4], 25.6 µM; in test [5], 22.5 µM; in test [6] it was 25.8 µM; in test [7] it was 24.2 µM; in test [8] it was 24.2 µM. For the same compound, the GI50 in [9] was 40.9 µM; in test [10] it was 21.7 µM. For the same compound, the TGI in [1] is 49.1 µM; in test [4] it was 87.2 µM; in [5], 76.2 µM; in test [6], 54.7 µM; in test [7] it was above 100 µM; in [8] it was 64.7 µM. Also, the TGI in test [9] is above 100 µM; in test [10], 48 µM.
